The source of these data is US10758534B2 (Vertex Pharmaceuticals Incorporated, priority 2014, dated 2020).

The target of this assay is T1, F508del (Homo sapiens, UniProt P13569, DEL508-508).
T1 construct: expressed in transfected cells
T1 sequence (P13569 with tags, fused parts or gaps DEL508-508): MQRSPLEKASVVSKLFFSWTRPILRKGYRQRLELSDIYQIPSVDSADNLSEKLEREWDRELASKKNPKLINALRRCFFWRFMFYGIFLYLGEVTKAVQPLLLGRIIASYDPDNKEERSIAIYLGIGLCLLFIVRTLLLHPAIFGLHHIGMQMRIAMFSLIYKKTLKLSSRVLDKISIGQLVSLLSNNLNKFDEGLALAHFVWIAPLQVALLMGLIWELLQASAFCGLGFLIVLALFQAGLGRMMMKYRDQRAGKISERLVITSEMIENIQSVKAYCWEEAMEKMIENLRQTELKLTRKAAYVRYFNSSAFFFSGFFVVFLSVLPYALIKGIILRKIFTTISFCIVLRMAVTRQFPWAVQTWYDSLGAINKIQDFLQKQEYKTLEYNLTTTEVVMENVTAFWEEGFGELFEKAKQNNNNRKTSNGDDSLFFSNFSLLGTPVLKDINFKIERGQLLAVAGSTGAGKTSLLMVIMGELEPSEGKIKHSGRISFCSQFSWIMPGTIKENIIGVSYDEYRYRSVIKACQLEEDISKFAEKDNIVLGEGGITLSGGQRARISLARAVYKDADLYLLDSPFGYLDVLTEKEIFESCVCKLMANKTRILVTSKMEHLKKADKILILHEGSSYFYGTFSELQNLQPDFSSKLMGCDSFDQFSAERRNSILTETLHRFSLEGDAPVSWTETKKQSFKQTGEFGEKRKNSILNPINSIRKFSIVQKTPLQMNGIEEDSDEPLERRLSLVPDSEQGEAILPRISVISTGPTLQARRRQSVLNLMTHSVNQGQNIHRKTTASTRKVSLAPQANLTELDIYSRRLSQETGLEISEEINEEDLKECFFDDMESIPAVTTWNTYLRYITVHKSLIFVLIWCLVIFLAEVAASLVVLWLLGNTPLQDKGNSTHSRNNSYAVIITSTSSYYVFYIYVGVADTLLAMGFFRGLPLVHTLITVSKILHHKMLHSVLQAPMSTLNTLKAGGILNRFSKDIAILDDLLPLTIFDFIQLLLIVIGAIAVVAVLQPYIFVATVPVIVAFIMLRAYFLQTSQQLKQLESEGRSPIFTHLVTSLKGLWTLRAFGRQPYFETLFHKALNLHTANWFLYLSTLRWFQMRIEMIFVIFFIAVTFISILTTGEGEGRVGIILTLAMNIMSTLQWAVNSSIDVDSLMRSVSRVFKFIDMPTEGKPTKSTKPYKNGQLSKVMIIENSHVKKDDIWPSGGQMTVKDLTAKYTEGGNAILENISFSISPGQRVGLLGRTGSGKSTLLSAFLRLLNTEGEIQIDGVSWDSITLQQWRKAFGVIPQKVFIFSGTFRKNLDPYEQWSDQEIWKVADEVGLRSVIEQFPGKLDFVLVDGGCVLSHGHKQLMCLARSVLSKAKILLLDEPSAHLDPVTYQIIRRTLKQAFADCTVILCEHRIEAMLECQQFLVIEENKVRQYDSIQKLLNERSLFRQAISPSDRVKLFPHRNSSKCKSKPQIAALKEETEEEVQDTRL
The assay is described as follows: Protocol 1: membrane potential optical assay (FLIPR III, voltage sensing dye), identification of potentiator compounds. Format: cell-based. The settings on record: Table 3, compounds of Table 1. The essentials:
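Read-out: change in voltage-sensing dye fluorescence (FLIPR III) as a measure of F508del conductance. Temperature-corrected (27° C, 24 hrs) NIH 3T3 cells expressing F508del are pretreated with potentiators, dye-loaded, then stimulated with forskolin under a chloride ion gradient using chloride-free gluconate bath.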
Regarding `CC(C)Oc1ccc(-c2ccc(C(=O)NS(=O)(=O)c3ccc(OCc4ccccc4)c(N)n3)c(N3[C@H](C)CC[C@@H]3C)n2)cn1` [Compound 1588, N-[(6-amino-5-benzyloxy-2-pyridyl)sulfonyl]-2-[(2S,5R)-2,5-dimethylpyrrolidin-1-yl]-6-(6-isopropoxy-3-pyridyl)pyridine-3-carboxamide], the EC30 entry is recorded as “+++ (“+++” means <3 uM)”.
The value for `CC(C)COc1cc(F)cc(-c2ccc(C(=O)NS(=O)(=O)c3cccc(N)n3)c(C3CC(C)(C)CC3(C)C)n2)c1` (stereo not shown) [Compound 1552] was “+++ (“+++” means <3 uM)”.
The value for `Cc1ccc(-c2ccc(C(=O)NS(=O)(=O)c3nccnc3N)c(Oc3c(C)cc(C)cc3C)n2)cc1` [Compound 1047, N-(3-aminopyrazin-2-yl)sulfonyl-6-(p-tolyl)-2-(2,4,6-trimethylphenoxy)pyridine-3-carboxamide] was “+++ (“+++” means <3 uM)”; that for `CCOc1cccc2c1CN(Cc1cc(F)cc(OC)c1)C2(C)C(=O)NS(=O)(=O)c1cccc(F)n1` (stereo not shown) [Compound 1428, 4-ethoxy-2-[(3-fluoro-5-methoxy-phenyl)methyl]-N-[(6-fluoro-2-pyridyl)sulfonyl]-1-methyl-isoindoline-1-carboxamide] was “+++ (“+++” means <3 uM)”; that for `Cc1cccc(-c2ccc(C(=O)NS(=O)(=O)c3cccnc3N)c(N3C[C@@H](C)CC3(C)C)n2)c1C` [Compound 1713, N-[(2-amino-3-pyridyl)sulfonyl]-6-(2,3-dimethylphenyl)-2-[(4S)-2,2,4-trimethylpyrrolidin-1-yl]pyridine-3-carboxamide] was “+++ (“+++” means <3 uM)”.
Take `Cc1ccc(-c2ccc(C(=O)NS(=O)(=O)c3cccnc3N)c(N3C[C@@H](C)CC3(C)C)n2)c(C)c1` [Compound 1871, N-[(2-amino-3-pyridyl)sulfonyl]-6-(2,4-dimethylphenyl)-2-[(4S)-2,2,4-trimethylpyrrolidin-1-yl]pyridine-3-carboxamide]: the EC30 result is given as “+++ (“+++” means <3 uM)”.
The same measure for `Cc1ccc(-c2ccc(C(=O)NS(=O)(=O)c3nccnc3N)c(N3CCC(C)CC3)n2)cc1` [Compound 1084, N-(3-aminopyrazin-2-yl)sulfonyl-2-(4-methyl-1-piperidyl)-6-(p-tolyl)pyridine-3-carboxamide]: “++ (“++” means between 3 uM and 10 uM)”; for `CC1CN(c2ncccc2C(=O)NS(=O)(=O)c2cccc(N3CCN(C(=O)OC(C)(C)C)CC3)n2)C(C)(C)C1` (stereo not shown) [Compound 1773, tert-butyl 4-[6-[[2-(2,2,4-trimethylpyrrolidin-1-yl)pyridine-3-carbonyl]sulfamoyl]-2-pyridyl]piperazine-1-carboxylate]: “+++ (“+++” means <3 uM)”.
In the case of `CC(C)COc1cc(F)cc(-c2ccc(C(=O)NS(=O)(=O)c3ccn[nH]3)c(N3CCCC(C)C3C)n2)c1` (stereo not shown) [Compound 1169, 2-(2,3-dimethyl-1-piperidyl)-6-(3-fluoro-5-isobutoxy-phenyl)-N-(1H-pyrazol-5-ylsulfonyl)pyridine-3-carboxamide], the EC30 entry is “++ (“++” means between 3 uM and 10 uM)”.
The value for `CC(C)COc1cc(F)cc(-c2ccc(C(=O)NS(=O)(=O)c3cccc(N)n3)c(N3CC(=O)CC3(C)C)n2)c1` [Compound 1073, N-[(6-amino-2-pyridyl)sulfonyl]-2-(2,2-dimethyl-4-oxo-pyrrolidin-1-yl)-6-(3-fluoro-5-isobutoxy-phenyl)pyridine-3-carboxamide] was “+ (“+” means greater than 10 uM)”.
For `Cc1cc(C)c(Oc2nc(-c3cccc(Cl)c3)ccc2C(=O)NS(=O)(=O)c2cccc(N)n2)c(C)c1` [Compound 1295, N-[(6-amino-2-pyridyl)sulfonyl]-6-(3-chlorophenyl)-2-(2,4,6-trimethylphenoxy)pyridine-3-carboxamide], the EC30 result is listed as “+++ (“+++” means <3 uM)”.
As to `CC(C)COc1cc(F)cc(-c2ccc(C(=O)NS(=O)(=O)c3cccc(N)n3)c(N3CC(C)CCC3(C)C)n2)c1` (stereo not shown) [Compound 1995, N-[(6-amino-2-pyridyl)sulfonyl]-6-(3-fluoro-5-isobutoxy-phenyl)-2-(2,2,5-trimethyl-1-piperidyl)pyridine-3-carboxamide], the EC30 entry is “+++ (“+++” means <3 uM)”.
The same measure for `CC(C)=Cc1ccc(C(=O)NS(=O)(=O)c2cccc(N)n2)c(N2C[C@@H](C)CC2(C)C)n1` [Compound 1683, N-[(6-amino-2-pyridyl)sulfonyl]-6-(2-methylprop-1-enyl)-2-[(4S)-2,2,4-trimethylpyrrolidin-1-yl]pyridine-3-carboxamide]: “+++ (“+++” means <3 uM)”; for `CC(C)COc1cc(F)cc(-c2ccc(C(=O)NS(=O)(=O)c3cccc(N)n3)c(N(CC3CC3)C(C)C)n2)c1` [Compound 1157, N-[(6-amino-2-pyridyl)sulfonyl]-2-[cyclopropylmethyl(isopropyl)amino]-6-(3-fluoro-5-isobutoxy-phenyl)pyridine-3-carboxamide]: “+++ (“+++” means <3 uM)”; for `Cc1cc(C)c(Oc2nc(C3=CCCCO3)ccc2C(=O)NS(=O)(=O)c2cccc(N)n2)c(C)c1` [Compound 937, N-[(6-amino-2-pyridyl)sulfonyl]-6-(3,4-dihydro-2H-pyran-6-yl)-2-(2,4,6-trimethylphenoxy)pyridine-3-carboxamide]: “+++ (“+++” means <3 uM)”.
The same measure for `CC(C)CN(C)c1ccc(-c2ccc(C(=O)NS(=O)(=O)c3cccc(N)n3)c(N3[C@H](C)CC[C@@H]3C)n2)cn1` [Compound 1506, N-[(6-amino-2-pyridyl)sulfonyl]-2-[(2S,5R)-2,5-dimethylpyrrolidin-1-yl]-6-[6-[isobutyl(methyl)amino]-3-pyridyl]pyridine-3-carboxamide]: “+++ (“+++” means <3 uM)”; for `Cc1cccc(C)c1Cn1nc(-c2ccc3c(c2)OCOC3)cc1C(=O)NS(=O)(=O)c1ccccc1` [Compound 1621, N-(benzenesulfonyl)-5-(4H-1,3-benzodioxin-7-yl)-2-[(2,6-dimethylphenyl)methyl]pyrazole-3-carboxamide]: “+++ (“+++” means <3 uM)”.
The same measure for `CC1CN(c2ncc(-c3ccc(C(C)C)cc3)cc2C(=O)NS(=O)(=O)c2cccc(N)n2)C(C)(C)C1` (stereo not shown) [Compound 1809]: “+++ (“+++” means <3 uM)”; for `CC1CN(c2ncccc2C(=O)NS(=O)(=O)c2cccc(OCc3ccc(F)cc3Cl)n2)C(C)(C)C1` (stereo not shown) [Compound 1899, N—[[6-[(2-chloro-4-fluoro-phenyl)methoxy]-2-pyridyl]sulfonyl]-2-(2,2,4-trimethylpyrrolidin-1-yl)pyridine-3-carboxamide]: “+++ (“+++” means <3 uM)”.
On to `CC(C)COc1cc(F)cc(-c2ccc(C(=O)NS(=O)(=O)c3cccc(N)n3)c(OCCC3CCCO3)n2)c1` (stereo not shown) [Compound 1604, N-[(6-amino-2-pyridyl)sulfonyl]-6-(3-fluoro-5-isobutoxy-phenyl)-2-(2-tetrahydrofuran-2-ylethoxy)pyridine-3-carboxamide], for which the EC30 entry is “+++ (“+++” means <3 uM)”.
Regarding `CC(C)COc1cc(F)cc(-c2ccc(C(=O)NS(=O)(=O)c3cccc(N)n3)c(N3CCC(C)(C)C3C)n2)c1` (stereo not shown) [Compound 1156, N-[(6-amino-2-pyridyl)sulfonyl]-6-(3-fluoro-5-isobutoxy-phenyl)-2-(2,3,3-trimethylpyrrolidin-1-yl)pyridine-3-carboxamide], the EC30 result is “+++ (“+++” means <3 uM)”.
The value for `Cc1cc(C)c(Cn2nc(C(C)(C)C)cc2C(=O)NS(=O)(=O)c2cn(C)cn2)c(C)c1` [Compound 1568, 5-tert-butyl-N-(1-methylimidazol-4-yl)sulfonyl-2-[(2,4,6-trimethylphenyl)methyl]pyrazole-3-carboxamide] was “+++ (“+++” means <3 uM)”; that for `CC(C)COc1cc(F)cc(-c2ccc(C(=O)NS(=O)(=O)c3cccc(N)n3)c(OCCc3ccncc3)n2)c1` [Compound 1605, N-[(6-amino-2-pyridyl)sulfonyl]-6-(3-fluoro-5-isobutoxy-phenyl)-2-[2-(4-pyridyl)ethoxy]pyridine-3-carboxamide] was “+++ (“+++” means <3 uM)”; that for `CC(C)Oc1ccc(-c2ccc(C(=O)NS(=O)(=O)c3cccc(N)n3)c(N3C[C@H]4CC[C@@H]3C4)n2)cn1` [Compound 921, N-[(6-amino-2-pyridyl)sulfonyl]-2-[(1S,4R)-3-azabicyclo[2.2.1]heptan-3-yl]-6-(6-isopropoxy-3-pyridyl)pyridine-3-carboxamide] was “++ (“++” means between 3 uM and 10 uM)”.
The same measure for `CCCC/C=C/c1cnc(N2CC(C)CC2(C)C)c(C(=O)NS(=O)(=O)c2cccc(N)n2)c1` (stereo not shown) [Compound 1916, N-[(6-amino-2-pyridyl)sulfonyl]-5-[(E)-hex-1-enyl]-2-(2,2,4-trimethylpyrrolidin-1-yl)pyridine-3-carboxamide]: “+++ (“+++” means <3 uM)”; for `COc1cccc2c1CN(Cc1c(C)cc(C)cc1C)C2(C)C(=O)NS(=O)(=O)c1cccc(N)n1` (stereo not shown) [Compound 1161, N-[(6-amino-2-pyridyl)sulfonyl]-4-methoxy-1-methyl-2-[(2,4,6-trimethylphenyl)methyl]isoindoline-1-carboxamide]: “+++ (“+++” means <3 uM)”; for `CC(C)COc1cnn(-c2ccc(C(=O)NS(=O)(=O)c3cccnc3N)c(N3C[C@@H](C)CC3(C)C)n2)c1` [Compound 1895, N-[(2-amino-3-pyridyl)sulfonyl]-6-(4-isobutoxypyrazol-1-yl)-2-[(4S)-2,2,4-trimethylpyrrolidin-1-yl]pyridine-3-carboxamide]: “+++ (“+++” means <3 uM)”.
Take `CCC(Oc1nc(-c2cc(F)cc(OCC(C)C)c2)ccc1C(=O)NS(=O)(=O)c1cccc(N)n1)C1CC1(C)C` (stereo not shown) [Compound 1639, N-[(6-amino-2-pyridyl)sulfonyl]-2-[1-(2,2-dimethylcyclopropyl)propoxy]-6-(3-fluoro-5-isobutoxy-phenyl)pyridine-3-carboxamide]: the EC30 entry is reported as “+++ (“+++” means <3 uM)”.
